From patent US4366143A, “Assay for the free portion of substances in biological fluids” (Amersham International Public Limited Company, priority 1979, dated 1982)

Assays:
[1] = system: plasma proteins such as sex hormone binding globulin and albumin; details: cited from earlier work
[2] = system: sex hormone binding globulin (SHBG); details: cited from earlier work
transcortin = target: T1, transcortin (Homo sapiens, UniProt P08185); assay: Binding of cortisol tracers to serum proteins / transcortin with and without ANS (Example 4); details: for % Tracer Bound to Serum Proteins (Corrected for Non-Specific Binding): charcoal extracted human serum
T1 construct: charcoal extracted human serum; from tissue; host or cells: human serum, charcoal extracted (unpurified)
T1 sequence (P08185 23-405): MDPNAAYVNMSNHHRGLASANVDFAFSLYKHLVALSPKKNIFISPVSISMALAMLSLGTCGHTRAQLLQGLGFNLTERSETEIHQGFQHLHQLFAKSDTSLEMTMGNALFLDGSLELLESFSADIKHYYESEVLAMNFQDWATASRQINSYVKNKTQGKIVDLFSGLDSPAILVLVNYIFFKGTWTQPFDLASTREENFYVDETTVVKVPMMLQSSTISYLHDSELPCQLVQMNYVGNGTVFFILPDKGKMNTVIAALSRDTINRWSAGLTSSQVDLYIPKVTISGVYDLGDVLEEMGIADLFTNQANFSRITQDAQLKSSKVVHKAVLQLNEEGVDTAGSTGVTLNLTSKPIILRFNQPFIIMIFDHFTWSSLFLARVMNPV
Procedure: The protocol was as follows:
B. 200 μl buffer (containing either 0 or 600 μg of 8-anilinonaphthalene sulphonic acid (ANS) as a cortisol binding site blocking agent).
A mixture of A and B was incubated at 37° C. for one hour. […] The reaction tubes were mixed for one hour at room temperature. A 0.5 ml aliquot of the supernatant was then removed for counting.

TBG [3] = details: cited from earlier work
antibodies = details: cited from earlier work
[4] = system: solid phase T4 specific antibody; assay: Binding of labelled T4 derivatives to solid phase T4 antibody with and without thiomersal (Example 7); set-up: species or system sheep; details: 125I-labelled T4 derivative
Procedure: (§1) The dominant binding protein for T4 in serum is TBG, and the binding site for T4 on this protein may be blocked by adding an appropriate concentration of thiomersalate to the buffer.
(§2) The labelled T4 derivative was dissolved in 0.01 molar phosphate, pH 7.4 containing 0.9% sodium chloride and 0.1% gelatin to give a radioactive concentration of approximately 0.05 microcuries per milliliter. In the part of the experiment where the blocking agent was used, this buffer contained 1.8% thiomersal.
(§3) A solid phase T4 specific antibody was used that consisted of a pre-precipitated double antibody complex made by reacting sheep anti-T4 serum and donkey anti-rabbit gamma globulin serum in the abovementioned phosphate buffer. A concentration of this solid phase T4 antibody suspension was chosen that bound approximately 50% of ^125 I-T4 tracer in the presence of blocking agent under the experimental conditions used.
(§4) The binding of the labelled T4 derivatives was tested as follows:
(§5) 50 μl human serum (depleted of T4 by resin extraction)
(§6) 500 μl labelled T4 derivative (with or without blocking agent)
(§7) 1.0 ml solid phase T4 antibody suspension
(§8) Tubes were incubated for 2 hours at 37° C. and then centrifuged to settle the solid phase antibody. The supernatant solution was decanted and the radioactivity in the solid phase measured.

TBG [5] = target: T2, TBG (Homo sapiens, UniProt P05543); assay: Binding of T4 derivatives to TBG, from antibody binding in presence and absence of blocking agent (Example 7)
T2 sequence (P05543 21-415): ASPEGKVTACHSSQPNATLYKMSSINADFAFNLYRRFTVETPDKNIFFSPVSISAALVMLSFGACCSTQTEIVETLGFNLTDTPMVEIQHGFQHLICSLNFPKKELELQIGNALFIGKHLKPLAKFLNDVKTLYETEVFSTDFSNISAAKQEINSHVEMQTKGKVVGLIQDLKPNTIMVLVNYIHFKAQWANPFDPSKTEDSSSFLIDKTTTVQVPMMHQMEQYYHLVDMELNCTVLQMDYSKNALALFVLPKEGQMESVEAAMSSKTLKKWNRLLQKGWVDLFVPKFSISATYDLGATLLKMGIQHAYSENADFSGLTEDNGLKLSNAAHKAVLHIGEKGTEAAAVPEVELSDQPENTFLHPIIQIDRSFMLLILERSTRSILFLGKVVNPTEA
Procedure: as §1, §2, §3, §4, §5, §6, §7, §8
The right-hand column of the above table sets out the ratio of the figures in the two other columns. As a rule of thumb, it may be said that this ratio should be at least 0.6, preferably at least 0.9 for the compound tested to be worth considering for use in the free T4 assay. It should be noted, however, that these figures are valid only for the free T4 assay and not necessarily for other free ligand assays.

TBPA [6] = details: cited from earlier work
TBG [7] = target: T2, TBG; details: blood stream of human beings; cited from earlier work
Albumin = details: blood stream of human beings; cited from earlier work
[8] = system: thyroxine binding globulin (TBG), thyroxine binding pre-albumin (TBPA) and albumin (Alb); details: blood serum or plasma; cited from earlier work
TBPA [9] = details: blood stream of human beings; cited from earlier work
[10] = system: T4-binding reagent (pre-precipitated double antibody complex, sheep anti-T4 serum); assay: Free T4 assay using N-acetyl-thyroxine-dimethylamide, tracer bound to T4-binding reagent (Example 6)
From the text: The labelled derivative of the ligand was N-acetyl-thyroxine-dimethylamide,labelled by iodine-125 exchange using sodium iodide I^125 and chloromine-T. The specific activity was 1000 millicuries per milligram. The tracer concentration was 0.5 μCi/ml.
The specific binder was a pre-precipitated double antibody complex made from sheep anti-T4 serum and donkey anti-rabbit γ globulin serum. This reagent is referred to as the T4-binding reagent.
The buffer was 0.01 molar phosphate, pH 7.4, containing 9.0 g/l NaCl, 1.0 g/l NaN3 and 1.0 g/l gelatin. 50 micro-liters of a serum sample or standard was mixed with 500 micro-liters of the tracer solution and 1000 micro-liters of the T4-binding reagent. The mixture was incubated for 2 hours at 37° C., centrifuged, decanted, and drained. The radioactivity of the precipitate was measured.

sheep-anti-T4 serum = assay: Free T4 assay, tracer N-acetyl-thyroxine-methyl ester bound to sheep anti-T4 serum (standard curve, Example 1); assay type: binding
From the text: The labelled derivative of the ligand was N-acetyl-thyroxine-methyl ester, labelled by iodine-125 exchange using sodium iodide-I^125 and chloramine-T. The specific activity was 1500 millicuries per milligram. The tractor concentration was 90 picomolar.
The specific binder was a solution of sheep-anti-T4 serum raised against thyroxine methyl ester coupled to bovine serum albumin by carbodiimide. The final dilution was 1/60,000 in buffer.
The buffer contained 13.6 g/l KH2 PO4, 9.0 g/l NaCl, 0.07 g/l NaN3 and 1.0 g/l gelatin.
50 micro-liters of a serum sample was mixed with 200 micro-liters of the radioactive ligand derivative solution and 200 micro-liters of specific binder solution and the mixture incubated at room temperature for one hour. Then 1 milli-liter of polyethyleneglycol solution (20%) was added, and the reaction mixture centrifuged. The supernatant liquid was decanted and the radioactivity of the precipitate was measured.

transcortin and albumin = details: cited from earlier work

Compound | % of T4 derivative bound to antibody ([4]; Thiomersal absent) [%] | % of T4 derivative bound to antibody ([4]; Thiomersal present) [%] | Ratio (% bound to antibody, thiomersal absent / present) (TBG [5]) | binding to TBG (in words) (TBG [5]) | suitability of TBG binding reduction for free-T4 assay (in words) (TBG [5]) | other results
C[C@]12CC[C@H]3[C@@H](CCC4=CC(=O)CC[C@@]43C)[C@@H]1CC[C@@H]2O (stereo in doubt) [testosterone] |  |  |  |  |  | proportion bound to plasma proteins [1]: > 90%; binding to SHBG (in words) [2]: bind strongly
C[C@]12CCC(=O)C=C1CC[C@@H]1[C@@H]2[C@@H](O)C[C@@]2(C)[C@H]1CC[C@]2(O)C(=O)CO [Cortisol (H^3), Cortisol, reference compound] |  |  |  |  |  | binding to transcortin (in words) (transcortin): binds strongly to transcortin; % Tracer Bound to Serum Proteins (Corrected for Non-Specific Binding) (transcortin; ANS 0 μg/tube): 28%; % Tracer Bound to Serum Proteins (Corrected for Non-Specific Binding) (transcortin; ANS 600 μg/tube): 3.5%; displacement from transcortin by ANS blocking agent (in words) (transcortin; high concentrations of ANS): displaced at high concentrations of the ANS blocking agent
N[C@H](Cc1cc(I)c(Oc2cc(I)c(O)c(I)c2)c(I)c1)C(=O)O [D-T4, D-Thyroxine] | 24 | 50 | 0.48 | bound less by TBG | not reduced enough for consideration as a T4 derivative for a free-T4 assay | binding to TBG relative to L-Thyroxine / T4 (in words) (TBG [3]): substantially less than that of L-Thyroxine; binding to antibodies relative to L-Thyroxine / T4 (in words) (antibodies): binds as strongly to antibodies as does the naturally occurring L-Thyroxine; binding to TBPA relative to L-Thyroxine / T4 (in words) (TBPA [6]): substantially less than that of L-Thyroxine
COC(=O)[C@@H](Cc1cc(I)c(Oc2cc(I)c(O)c(I)c2)c(I)c1)NC(C)=O [D-T4/A, N-Acetyl D-T4-methylester] | 38 | 38 | 1.00 | appears to decrease this binding to TBG even further | sufficiently reduced binding to TBG for use in the free-T4 assay | 
N[C@@H](Cc1cc(I)c(Oc2cc(I)c(O)c(I)c2)c(I)c1)C(=O)O [L-T4, thyroxine, reference compound] | 12 | 50 | 0.24 | bound appreciably by TBG |  | percentage of T4 bound to TBG (TBG [7]): approximately 70%; percentage of T4 bound to Albumin (Albumin): 5-10%; bound to naturally occurring binding proteins [8]: approximately 99.98%; percentage of T4 bound to TBPA (TBPA [9]): 20-25%
COC(=O)[C@H](Cc1cc(I)c(Oc2cc(I)c(O)c(I)c2)c(I)c1)NC(C)=O [L-T4/A, N-Acetyl-L-T4-methylester] | 36 | 40 | 0.90 | appears to bind much less strongly to TBG than does L-T4 | sufficiently reduced binding to TBG for use in the free-T4 assay | 
CC(=O)N[C@@H](Cc1cc(I)c(Oc2cc(I)c(O)c(I)c2)c(I)c1)C(=O)O [L-T4/F, N-Acetyl-L-T4] | 22 | 52 | 0.42 | bound to TBG to about the same extent as D-T4 | not reduced enough for consideration as a T4 derivative for a free-T4 assay | 
CCNC(=O)[C@H](Cc1cc(I)c(Oc2cc(I)c(O)c(I)c2)c(I)c1)NC(C)=O [L-T4/L, N-Acetyl-L-T4-monoethylamide] | 21 | 60 | 0.35 | bound to TBG to about the same extent as D-T4 | not reduced enough for consideration as a T4 derivative for a free-T4 assay | 
CC(=O)N[C@@H](Cc1cc(I)c(Oc2cc(I)c(O)c(I)c2)c(I)c1)C(=O)N(C)C [L-T4/M, N-Acetyl-L-T4-dimethylamide] | 50 | 50 | 1.00 | appears to have minimal binding to TBG | sufficiently reduced binding to TBG for use in the free-T4 assay | 
CC(=O)N[C@@H](Cc1cc(I)c(Oc2cc(I)c(O)c(I)c2)c(I)c1)C(=O)N(C)C [N-acetyl-thyroxine-dimethylamide] |  |  |  |  |  | % Radioactivity in Solid Phase ([10]; Free T4 0 ng/dl, mean of duplicate tubes): 38%; % Radioactivity in Solid Phase ([10]; Free T4 0.18 ng/dl, mean of duplicate tubes): 22%; % Radioactivity in Solid Phase ([10]; Free T4 0.9 ng/dl, mean of duplicate tubes): 11%; % Radioactivity in Solid Phase ([10]; Free T4 3.0 ng/dl, mean of duplicate tubes): 6.0%; % Radioactivity in Solid Phase ([10]; Free T4 5.7 ng/dl, mean of duplicate tubes): 3.6%; % Radioactivity in Solid Phase ([10]; non-pregnant euthyroid control): 7.1%; % Radioactivity in Solid Phase ([10]; pregnant euthyroid control): 6.8%
COC(=O)[C@H](Cc1cc(I)c(Oc2cc(I)c(O)c(I)c2)c(I)c1)NC(C)=O [N-acetyl-thyroxine-methyl ester] |  |  |  |  |  | % Radioactivity in Solid Phase (sheep-anti-T4 serum; Free T4 0.0 ng/dl): 58%; % Radioactivity in Solid Phase (sheep-anti-T4 serum; Free T4 0.2 ng/dl): 55%; % Radioactivity in Solid Phase (sheep-anti-T4 serum; Free T4 1.0 ng/dl): 47%; % Radioactivity in Solid Phase (sheep-anti-T4 serum; Free T4 3.0 ng/dl): 34%; % Radioactivity in Solid Phase (sheep-anti-T4 serum; Free T4 5.8 ng/dl): 22%
C[C@]12CCC(=O)C=C1CC[C@@H]1[C@@H]2[C@@H](O)C[C@@]2(C)[C@H]1CC[C@]2(O)C(=O)CO [cortisol] |  |  |  |  |  | cortisol in free form in blood plasma (transcortin and albumin): ~8%
C[C@]12CC[C@@H]3c4ccc(O)cc4CC[C@H]3[C@@H]1CC[C@@H]2O [oestradiol] |  |  |  |  |  | binding to SHBG (in words) [2]: bind strongly
CC(=O)[C@H]1CC[C@H]2[C@@H]3CCC4=CC(=O)CC[C@]4(C)[C@H]3CC[C@]12C [progesterone] |  |  |  |  |  | proportion bound to plasma proteins [1]: > 90%
